Data taken from ChEMBL document CHEMBL4257222, “Use of small molecule inhibitors targeting eya tyrosine phosphatase” (2016).
Activity calls are given as the source filed them. No cut-off for these calls is given here.

Columns and labels:
HUVEC [1] = test: Inhibition of tube formation of HUVEC by matrigel tube-formation assay; type: functional, cell-based; conditions: Homo sapiens
Aorta [2] = test: Inhibition of sprouting in mouse aorta cultured in collagen gels at 7.5 uM by aortic ring sprouting assay; type: functional, tissue-based
Aorta [3] = test: Inhibition of branching in mouse aorta cultured in collagen gels assessed as reduction in number of branch-points at 7.5 uM by aortic ring sprouting assay; type: functional, tissue-based
[4] = target: T1, Protein phosphatase EYA2 (Homo sapiens) (UniProt O00167); test: Inhibition of Eya2 (unknown origin) expressed in human MCF10A cells assessed as reduction in cell migration; type: cell-based
T1 sequence (whole entry): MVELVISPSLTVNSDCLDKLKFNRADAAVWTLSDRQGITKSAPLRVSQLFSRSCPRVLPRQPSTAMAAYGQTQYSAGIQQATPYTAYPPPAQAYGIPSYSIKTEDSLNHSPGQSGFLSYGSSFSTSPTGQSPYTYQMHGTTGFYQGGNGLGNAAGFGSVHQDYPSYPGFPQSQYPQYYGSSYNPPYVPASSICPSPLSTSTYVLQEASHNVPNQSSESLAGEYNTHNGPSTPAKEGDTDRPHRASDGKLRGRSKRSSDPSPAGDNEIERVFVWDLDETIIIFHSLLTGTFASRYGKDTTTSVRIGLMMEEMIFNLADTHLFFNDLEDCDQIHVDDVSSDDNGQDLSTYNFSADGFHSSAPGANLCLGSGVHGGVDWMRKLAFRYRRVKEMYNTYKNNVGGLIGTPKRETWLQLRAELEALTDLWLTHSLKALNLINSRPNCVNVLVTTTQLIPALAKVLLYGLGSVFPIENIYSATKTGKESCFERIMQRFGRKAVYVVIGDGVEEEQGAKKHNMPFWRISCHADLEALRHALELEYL

[5] = test system: T2, Protein phosphatase EYA2 (Homo sapiens), O00167 [D250N]; test: Inhibition of Eya2 D250N mutant (unknown origin) expressed in human MCF10A cells assessed as reduction in cell migration; type: cell-based; conditions: concentration not given here
T2 sequence (whole entry): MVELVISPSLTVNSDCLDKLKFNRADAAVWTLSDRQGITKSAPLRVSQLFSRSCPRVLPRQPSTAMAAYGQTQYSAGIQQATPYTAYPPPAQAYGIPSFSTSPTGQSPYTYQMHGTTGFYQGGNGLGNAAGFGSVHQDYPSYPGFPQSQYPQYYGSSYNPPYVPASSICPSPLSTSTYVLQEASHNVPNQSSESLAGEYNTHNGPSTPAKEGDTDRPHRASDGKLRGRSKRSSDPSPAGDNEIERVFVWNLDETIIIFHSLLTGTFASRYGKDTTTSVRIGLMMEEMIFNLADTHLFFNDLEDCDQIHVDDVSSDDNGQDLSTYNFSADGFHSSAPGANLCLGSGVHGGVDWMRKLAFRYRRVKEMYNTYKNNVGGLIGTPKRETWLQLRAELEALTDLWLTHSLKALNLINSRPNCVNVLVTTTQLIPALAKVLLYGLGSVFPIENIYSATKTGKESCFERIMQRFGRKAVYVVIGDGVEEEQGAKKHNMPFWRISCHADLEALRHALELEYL

MCF-10A = test: Toxicity in human MCF10A cells expressing Eya2 (unknown origin) assessed as effect on cell proliferation of; type: cell-based
HUVEC [6] = test: Inhibition of cell motility of HUVEC; type: functional, cell-based; conditions: Homo sapiens
HUVEC [7] = test: Toxicity in HUVEC assessed as effect on cell proliferation by MTT assay; type: cell-based; conditions: human
HUVEC [8] = test: Inhibition of tubulogenesis of HUVEC grown on growth factor-reduced matrigel at 7.5 uM by inverted microscopy; type: functional, cell-based; conditions: Homo sapiens
Aorta [9] = test: Inhibition of endothelial cell migration in VEGF165-stimulated […] mouse aortic rings incubated in collagen matrix assessed as induction of shorter sprouts incubated for 10 days by aortic ring assay; type: functional, tissue-based
Aorta [10] = test: Inhibition of endothelial cell migration in VEGF165-stimulated […] mouse aortic rings incubated in collagen matrix assessed as reduction in microvascular density incubated for 10 days by aortic ring assay; type: functional, tissue-based
Danio rerio [11] = species: Danio rerio; test: Inhibition of angiogenesis in FLK1-GFP trangenic zebrafish model of angiogenesis assessed as induction of defects in developing vasculature measured after 24 hpf stage by fluorescence microscopy; type: functional, organism-based
Danio rerio [12] = species: Danio rerio; test: Inhibition of angiogenesis in FLK1-GFP trangenic zebrafish model of angiogenesis assessed as reduction in intersegmental vessel number and extension measured after 24 hpf stage by fluorescence microscopy; type: functional, organism-based
Danio rerio [13] = species: Danio rerio; test: Inhibition of angiogenesis in FLK1-GFP trangenic zebrafish model of angiogenesis assessed as effect on vasculature exposed to compound starting at later stage (20 hpf) by fluorescence microscopy; type: functional, organism-based
Mus musculus [14] = species: Mus musculus; test: Inhibition of proliferative retinopathy in mouse model of oxygen-induced retinopathy assessed as reduction in formation of neovascular tufts at 50 to 100 pmole injected at P12 and measured at P16; type: functional, organism-based
Mus musculus [15] = species: Mus musculus; test: Inhibition of proliferative retinopathy in mouse model of oxygen-induced retinopathy assessed as reduction in revascularization into the vaso-obliterated area at 50 to 100 pmole injected at P12 and measured at P16; type: functional, organism-based
[16] = Selectivity index, ratio of IC50 for inhibition of PTP1B (unknown origin) by p-nitrophenylphosphate assay to IC50 for inhibition of mouse Eya3 catalytic domain (223 to 510 residues) by p-nitrophenylphosphate assay
[17] = target: T1, Protein phosphatase EYA2 (Homo sapiens); test: Inhibition of Eya2 (unknown origin) expressed in human MCF10A cells assessed as reduction in cell migration at 1 uM; type: cell-based
HUVEC [18] = test: Toxicity in HUVEC assessed as reduction in cell proliferation incubated for 3 days by WST8 assay; type: cell-based; set-up: scale not given: the % may be the effect or the level left; conditions: human, 72 h
HUVEC [19] = test: Inhibition of tubulogenesis of HUVEC grown on growth factor-reduced matrigel by inverted microscopy; type: functional, cell-based; conditions: Homo sapiens
HUVEC [20] = test: Inhibition of tubulogenesis of HUVEC grown on growth factor-reduced matrigel at 2.5 uM by inverted microscopy; type: functional; conditions: Homo sapiens
Mus musculus [21] = species: Mus musculus; test: Inhibition of post-natal retinal angiogenesis in postnatal mouse assessed as reduction in branch points at 100 uM injected into eyes at P0.5, P3 and P5; type: functional, organism-based
HUVEC [22] = test: Inhibition of tube formation of HUVEC assessed as induction of endothelial cells aggregation by matrigel tube-formation assay; type: functional, cell-based; conditions: Homo sapiens
HUVEC [23] = test: Inhibition of tube formation of HUVEC assessed as induction of reduction in endothelial cells organization after 2 hrs by matrigel tube-formation assay; type: functional, cell-based; conditions: Homo sapiens
HUVEC [24] = test: Inhibition of tube formation of HUVEC assessed as induction of reduction in endothelial cells organization after 6 hrs by matrigel tube-formation assay; type: functional, cell-based; conditions: Homo sapiens
HUVEC [25] = test: Inhibition of tube formation of HUVEC assessed as reduction of interconnecting cellular aggregates of endothelial cells after 20 hrs by matrigel tube-formation assay; type: functional, cell-based; conditions: Homo sapiens
HUVEC [26] = test: Inhibition of tube formation of HUVEC in presence of hight level of fetal bovine serum by matrigel tube-formation assay; type: functional, cell-based; conditions: Homo sapiens
A673 = test: Antitumor activity against human A673 cells xenografted in nude mouse assessed as inhibition tumor growth at 25 mg/kg/day, ip and measured every other day for 2 weeks; type: functional, organism-based
[27] = target: T3, Protein phosphatase EYA3 (Homo sapiens) (UniProt Q99504); conditions: 50 uM
T3 sequence (whole entry): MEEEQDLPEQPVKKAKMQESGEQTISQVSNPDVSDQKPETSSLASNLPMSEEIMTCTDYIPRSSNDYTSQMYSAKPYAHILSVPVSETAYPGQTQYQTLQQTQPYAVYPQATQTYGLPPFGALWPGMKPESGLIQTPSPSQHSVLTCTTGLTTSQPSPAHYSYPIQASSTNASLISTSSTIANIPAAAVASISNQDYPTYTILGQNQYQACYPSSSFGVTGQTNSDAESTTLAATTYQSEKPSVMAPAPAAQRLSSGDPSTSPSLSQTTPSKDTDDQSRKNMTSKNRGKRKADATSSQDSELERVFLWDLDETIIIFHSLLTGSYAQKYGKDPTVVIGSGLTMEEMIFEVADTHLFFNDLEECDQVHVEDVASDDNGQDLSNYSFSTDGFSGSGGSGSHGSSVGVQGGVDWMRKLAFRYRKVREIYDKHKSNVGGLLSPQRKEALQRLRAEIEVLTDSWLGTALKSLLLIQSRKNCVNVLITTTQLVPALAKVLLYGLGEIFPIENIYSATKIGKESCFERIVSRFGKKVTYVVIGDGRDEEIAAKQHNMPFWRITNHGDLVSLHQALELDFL
Description: Inhibition of human Eya3 isoform 2 (127 to 573 residues) interaction with His-tagged SIX2 at 50 uM by Ni-NTA agarose gel based pull down assay

| Structure (SMILES) | inhibition (HUVEC [1]) | inhibition (Aorta [2]) | inhibition (Aorta [3]) | inhibition [4] | inhibition [5] [%] | Activity (MCF-10A) | inhibition (HUVEC [6]) | Activity (HUVEC [7]) | inhibition (Aorta [9]) | inhibition (Aorta [10]) | inhibition (Danio rerio [11]) | inhibition (Danio rerio [12]) | inhibition (Danio rerio [13]) | inhibition (Mus musculus [14]) | inhibition (Mus musculus [15]) | Activity (HUVEC [18]) | further results |
| --- | --- | --- | --- | --- | --- | --- | --- | --- | --- | --- | --- | --- | --- | --- | --- | --- | --- |
| CCCCc1oc2ccccc2c1C(=O)c1cc(I)c(O)c(I)c1 | inactive | Active | Active | – | – | – | – | – | – | – | – | – | – | – | – | – | – |
| CCCCc1oc2ccccc2c1C(=O)c1ccc(O)cc1 | – | – | – | Dose-dependent effect | < 10 | Non-Toxic | Active | Non-Toxic | Dose-dependent effect | Dose-dependent effect | Dose-dependent effect | Dose-dependent effect | inactive | Active | Active | – | inhibition (HUVEC [8]): Active |
| CC(O)CCc1oc2ccccc2c1C(=O)c1cc(I)c(O)c(I)c1 (stereo not given) | inactive | Active | Active | – | – | – | – | – | – | – | – | – | – | – | – | – | – |
| Cc1oc2ccccc2c1C(=O)c1ccc(O)c(I)c1 | inactive | Active | Active | – | – | – | – | – | – | – | – | – | – | – | – | – | – |
| CCc1oc2ccccc2c1C(=O)c1ccc(O)cc1 [BENZARONE] | Active | – | – | Dose-dependent effect | < 10 | Non-Toxic | Active | Non-Toxic | Dose-dependent effect | Dose-dependent effect | Dose-dependent effect | Dose-dependent effect | inactive | Active | Active | Toxic | Ratio IC50 [16]: > 100; inhibition [17]: > 50%; inhibition (HUVEC [19]): Dose-dependent effect; inhibition at 2.5 µM (HUVEC [20]): 50%; inhibition (Mus musculus [21]): Active |
| Cc1oc2ccccc2c1C(=O)c1cc(I)c(O)c(I)c1 | inactive | Active | Active | – | – | – | – | – | – | – | – | – | – | – | – | – | – |
| CCc1oc2cc(O)ccc2c1C(=O)c1cc(Br)c(O)c(Br)c1 | Active | Active | Active | – | – | – | – | – | – | – | – | – | – | – | – | > 50% | inhibition (HUVEC [22]): Active; inhibition (HUVEC [23]): Active; inhibition (HUVEC [24]): Active; inhibition (HUVEC [25]): Active; inhibition (HUVEC [26]): inactive |
| CCc1oc2ccc(O)cc2c1C(=O)c1cc(Br)c(O)c(Br)c1 | inactive | Active | Active | – | – | – | – | – | – | – | – | – | – | – | – | – | – |
| CCc1oc2ccccc2c1C(=O)c1cc(Br)c(O)c(Br)c1 [BENZBROMARONE] | Active | – | – | Dose-dependent effect | < 10 | Non-Toxic | Active | Non-Toxic | Dose-dependent effect | Dose-dependent effect | Dose-dependent effect | Dose-dependent effect | inactive | Active | Active | Toxic | inhibition (HUVEC [8]): Active; TGI (A673): Active; inhibition [27]: inactive |
| CC(O)c1oc2ccccc2c1C(=O)c1cc(Br)c(O)c(Br)c1 (stereo not given) | – | Active | Active | – | – | – | – | – | – | – | – | – | – | – | – | – | – |
